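Step 1: Grow cells in 96-well plates. Step 2: Expose to compound for 48 hours at 5 concentrations. Step 3: Interpolate endpoints linearly; if unreached, use highest concentration. GI50 = concentration required for 50% inhibition of growth. At the TGI there is no net growth.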
How the values were obtained:
Test in all cases: NCI tumour cell line growth inhibition, 48 h
HCT-15 colon = test system: HCT-15 colon
M14 melanoma = test system: M14 melanoma
MDA-MB-435 = test system: MDA-MB-435
MOLT-4 leukemia = test system: MOLT-4 leukemia
NCI-H460 lung = test system: NCI-H460 lung
NCI/ADR-RES ovarian = test system: NCI/ADR-RES ovarian
RPMI-8226 leukemia = test system: RPMI-8226 leukemia
SF-295 CNS = test system: SF-295 CNS
SK-OV-3 ovarian = test system: SK-OV-3 ovarian
UACC-257 melanoma = test system: UACC-257 melanoma

Compound	GI50 (HCT-15 colon) [µM]	TGI (HCT-15 colon) [µM]	GI50 (M14 melanoma) [µM]	TGI (M14 melanoma) [µM]	GI50 (MDA-MB-435) [µM]	TGI (MDA-MB-435) [µM]	GI50 (MOLT-4 leukemia) [µM]	TGI (MOLT-4 leukemia) [µM]	GI50 (NCI-H460 lung) [µM]	TGI (NCI-H460 lung) [µM]	GI50 (NCI/ADR-RES ovarian) [µM]	TGI (NCI/ADR-RES ovarian) [µM]	GI50 (RPMI-8226 leukemia) [µM]	TGI (RPMI-8226 leukemia) [µM]	GI50 (SF-295 CNS) [µM]	TGI (SF-295 CNS) [µM]	GI50 (SK-OV-3 ovarian) [µM]	TGI (SK-OV-3 ovarian) [µM]	GI50 (UACC-257 melanoma) [µM]	TGI (UACC-257 melanoma) [µM]
CSc1ccc(C2=Nn3c(nnc3-c3ccc(F)c(Cl)c3)SC2)cc1	10.1	> 100	6.73	28.4	1.5	5.21	7.2	> 100	14.6	38.6	5.17	22.6	18.6	> 100	3.57	17.5	13.5	41.9	67.6	> 100
S=C(N/N=C/c1cc(Cl)cc(Cl)c1)NC12CC3CC(CC(C3)C1)C2	> 56.6	> 100	65	> 100	> 27.6	> 100	> 100	> 100	2.66	> 100	7.2	> 100	> 100	> 100	3.92	> 24.5	5.06	> 46	> 22.7	> 100
Nc1cc(N)c2nc(-c3ccccc3)c(Oc3ccc(F)cc3)nc2c1	36	> 100	17.1	45	15.8	32.6	6.58	> 100	39.6	> 100	18.2	36.1	12.2	46.4	20.3	38.5	20.7	41.4	23.2	42.6
CON(C)C(=O)C(C)NC(=O)OCc1ccccc1 (stereo not given)	–	> 100	–	> 100	–	> 100	–	> 100	–	> 100	–	> 100	–	> 100	–	> 100	–	> 100	–	> 100
COc1ccc(C2SC(N)=Nc3c2c(C)nn3C(=O)c2ccc(Cl)cc2)cc1OC (stereo not given)	–	> 10	–	> 10	–	> 10	–	> 10	–	> 10	–	> 10	–	> 10	–	> 10	–	> 10	–	> 10
Cc1ccc(C(=O)Nc2ccc(CN3CCN(C)CC3)c(C(F)(F)F)c2)cc1C#Cc1cnc(N)c2ccc(F)cc12	0.112	0.456	0.0881	0.441	0.123	0.47	0.0921	0.671	0.232	0.647	0.436	2.09	0.53	1.64	0.633	2.34	0.684	2.88	0.594	1.95
C/C(=N\O)c1ccc(Nc2cc(-n3nnc4ccccc43)nc3ccccc23)cc1	4.17	20.9	5	14.9	8.86	> 28.3	2.85	15.4	4.08	> 25.4	5.22	16.2	3.19	12.8	10.3	> 100	24.1	> 62.3	17.5	> 53.7
CC(=O)c1cccc(N(/C=C/C(=O)C(F)(F)F)CC(=O)c2ccc(Cl)cc2)c1	> 100	> 100	> 100	> 100	> 100	> 100	> 100	> 100	> 100	> 100	> 100	> 100	> 100	> 100	> 100	> 100	> 100	> 100	> 100	> 100
CC(C)(C)OC(=O)NCC(C#N)CNC(=O)OC(C)(C)C	–	> 100	–	> 100	–	> 100	–	> 100	–	> 100	–	> 100	–	> 100	–	> 100	–	> 100	–	> 100
CS(=O)(=O)c1ccc(Cl)c([N+](=O)[O-])c1	5.91	23.3	17	31.7	18.9	38.4	28.5	69.5	18.3	40.8	20.8	46.9	25.5	70	18.5	37.9	18.4	32.3	15.8	31.6
Fc1cccc(COc2ccc(Nc3ncnc4sc(-c5ccco5)cc34)cc2Cl)c1	> 25	> 25	> 25	> 25	> 25	> 25	> 25	> 25	> 25	> 25	> 25	> 25	> 25	> 25	> 25	> 25	> 25	> 25	> 25	> 25

From PubChem BioAssay (NCI)
